Experimental findings from ChEMBL document CHEMBL1124041, “Conformational and steric aspects of the inhibition of phenylethanolamine N-methyltransferase by benzylamines” (J Med Chem, 1988) are described below.

Usually Ki stands for the equilibrium dissociation constant of an inhibitor or competing ligand from its target.

Experiment [1] has as its target T1, Phenylethanolamine N-methyltransferase (Bos taurus) (UniProt P10938).
T1 sequence (whole entry): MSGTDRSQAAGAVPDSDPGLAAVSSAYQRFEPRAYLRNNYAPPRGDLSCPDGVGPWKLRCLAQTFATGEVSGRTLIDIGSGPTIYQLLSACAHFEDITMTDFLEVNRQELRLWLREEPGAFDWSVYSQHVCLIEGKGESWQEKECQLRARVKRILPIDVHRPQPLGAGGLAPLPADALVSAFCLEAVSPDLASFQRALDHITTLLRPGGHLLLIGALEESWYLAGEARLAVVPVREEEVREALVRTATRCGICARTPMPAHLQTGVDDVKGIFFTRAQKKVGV
Put plainly: Molar pI50 value for phenylethanolamine N-methyl-transferase (PNMT) inhibition.

Experiment [2] addresses T1, Phenylethanolamine N-methyltransferase (Bos taurus). Put plainly: Acid dissociation constant of phenylethanolamine N-methyl-transferase (PNMT) inhibition.
Experiment [3] addresses T2, Phenylethanolamine N-methyltransferase (Bos taurus, UniProt P10938).
T2 sequence (P10938 whole entry): T1 sequence (whole entry)
Put plainly: Inhibition of phenylethanolamine N-methyl-transferase (PNMT).

With `NCc1ccc(Br)cc1`, the pI50 in experiment [1] is 4.37 M. The compound further had a pKa in experiment [2] of 9.13.

In experiment [1], `NCc1ccc(F)cc1` had a pI50 of 3.17 M. In addition, the pKa in experiment [2] is 9.3. `c1ccc2c(c1)CC1CC[C@H]2N1` gave an inhibition constant Ki in experiment [3] of 153 µM. In turn, `NCc1cccc(Br)c1` gave a pI50 in experiment [1] of 5.17 M. The compound further came in with a pKa in experiment [2] of 8.98. `c1ccc2c(c1)C1CC[C@H]2N1`: the inhibitory constant (Ki) in experiment [3] is > 2000 µM.

Regarding `NCc1ccccc1`, the pKa in experiment [2] was 9.38.

Compound `NC1CC2C[C@@H]1c1ccccc12` (some centres not stated) registered a Ki in experiment [3] of 479 µM. On the same count and under the same terms, the same measure for `c1cc2c3c(c1)CC[C@@H]3CCC2`: 52 µM. In experiment [2], `NCc1cccc(Cl)c1Cl` had a pKa of 7.35. As for `NCc1ccc(Cl)cc1`, the pI50 in experiment [1] worked out at 4.07 M. The compound also showed a pKa in experiment [2] of 9.14.

For `NCc1cccc(F)c1`, the pI50 in experiment [1] came out at 4 M. For the same compound, the pKa in experiment [2] stood at 9.04. In the case of `N[C@@H]1CC2CCC1c1ccccc12` (some centres not stated), the Ki in experiment [3] was > 1000 µM. For `COc1ccc(CN)cc1`, the pI50 in experiment [1] worked out at 2.78 M. In experiment [2], this compound yielded a pKa of 9.51. Regarding `c1ccc2c(c1)C1CC[C@H]2NC1`, the inhibition constant Ki in experiment [3] was > 2000 µM. `Cc1ccc(CN)cc1` gave a pI50 in experiment [1] of 3.16 M. This compound also had a pKa in experiment [2] of 9.54. For `NCc1cccc(Cl)c1`, in experiment [1], the pI50 stood at 5.07 M. In experiment [2], this compound gave a pKa of 9.01. In experiment [3], `CC1Cc2ccccc2CN1` (configuration not stated) displayed an inhibition constant (Ki) of 3 µM. On to `Cc1cccc(CN)c1`, for which, in experiment [1], the pI50 was 3.82 M. The pKa in experiment [2] was determined as 9.45.
